Data from ChEMBL document CHEMBL5726651, “Alkyne compounds for treatment of complement mediated disorders” (2017).

Biological target: Complement factor D (Homo sapiens, UniProt P00746)
Experiment: Inhibition Assay: Human factor D (purified from human serum, Complement Technology, Inc.) at 80 nM final concentration is incubated with test compound at various concentrations for 5 minutes at room temperature in 50 mM Tris, 1M NaCl, pH 7.5. A synthetic substrate Z-L-Lys-SBzl and DTNB (Ellman's reagent) are added to final concentrations of 100 μM each. The increase in color is recorded at OD405 nm in a microplate in kinetic mode over 30 minutes with 30 second time points in a […]. IC50 values are calculated by non-linear regression from the percentage of inhibition of complement factor D activity as a function of test compound concentration.

Sequence of Complement factor D (P00746 whole entry): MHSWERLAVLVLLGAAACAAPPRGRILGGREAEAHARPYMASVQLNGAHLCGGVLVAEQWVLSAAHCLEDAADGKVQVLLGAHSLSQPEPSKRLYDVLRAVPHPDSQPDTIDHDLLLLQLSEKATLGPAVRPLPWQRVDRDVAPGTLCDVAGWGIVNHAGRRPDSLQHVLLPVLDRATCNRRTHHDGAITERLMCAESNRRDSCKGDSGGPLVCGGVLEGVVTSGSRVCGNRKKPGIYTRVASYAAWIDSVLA

`NC(=O)c1nn(CC(=O)N2C[C@H](F)C[C@H]2C(=O)Nc2cncc(Br)n2)c2ccc(C#Cc3ncc(F)cn3)cc12` was tested, and the IC50 was less than 1000 nM.
